Among the test systems are KM12 colon; OVCAR-8 ovarian; HT29 colon; LOX IMVI melanoma; MALME-3M melanoma; RPMI-8226 leukemia; SK-MEL-28 melanoma; COLO 205 colon; SK-MEL-2 melanoma; MDA-MB-231 breast; UO-31 renal; IGROV1 ovarian; SK-OV-3 ovarian; SF-295 CNS; DU-145 prostate; SW-620 colon; UACC-62 melanoma; UACC-257 melanoma; NCI/ADR-RES ovarian; NCI-H460 lung.
Holding throughout (experiment): NCI anticancer screen, dose series, 48 h

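Cells were grown in 96-well plates and exposed to each compound for 48 hours at five concentrations; endpoints were interpolated linearly between bracketing concentrations, or set to the highest concentration if not reached. TGI denotes the concentration required for complete inhibition of growth.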 Some results are limits rather than exact numbers.

On to `CCCC1=NC(C(F)(F)F)(C(F)(F)F)N=C(N2CCOCC2)O1`, for which the TGI in the test on KM12 colon, in the test with OVCAR-8 ovarian, in the test on HT29 colon, with LOX IMVI melanoma, in the test on MALME-3M melanoma and in the test on RPMI-8226 leukemia was greater than 100 µM each time. The TGI in the test with SK-MEL-28 melanoma, with COLO 205 colon, in the test with SK-MEL-2 melanoma, in the test with MDA-MB-231 breast, in the test with UO-31 renal and in the test with IGROV1 ovarian was greater than 100 µM each time. Moreover, the TGI in the test with SK-OV-3 ovarian, in the test with SF-295 CNS, with DU-145 prostate, in the test on SW-620 colon, in the test on UACC-62 melanoma and in the test with UACC-257 melanoma was greater than 100 µM in each case. In the test with NCI/ADR-RES ovarian, this compound had a TGI greater than 100 µM.
On to `O=C1NC(=O)/C(=C/c2ccc(S(=O)(=O)N/N=C/c3ccccc3)cc2)N1`, for which the TGI in the test with KM12 colon, in the test on OVCAR-8 ovarian, in the test with HT29 colon, with LOX IMVI melanoma, with MALME-3M melanoma and with RPMI-8226 leukemia was greater than 100 µM each time. In addition, the TGI in the test on SK-MEL-28 melanoma, with COLO 205 colon, in the test on SK-MEL-2 melanoma, in the test on MDA-MB-231 breast, in the test with UO-31 renal and in the test on IGROV1 ovarian was greater than 100 µM each time. The TGI with SK-OV-3 ovarian, in the test with SF-295 CNS, in the test with DU-145 prostate, with SW-620 colon, in the test on UACC-62 melanoma and in the test on UACC-257 melanoma was greater than 100 µM each time. This compound registered a TGI in the test on NCI/ADR-RES ovarian greater than 100 µM.
With `CCOC(=O)C(Cc1ccc2c(c1)CCC2)Cc1ccc2c(c1)CCC2`, the TGI in the test on OVCAR-8 ovarian is greater than 100 µM; in the test with HT29 colon, greater than 100 µM; in the test with LOX IMVI melanoma, 47.8 µM; in the test on MALME-3M melanoma, greater than 100 µM; in the test on RPMI-8226 leukemia it was greater than 100 µM; in the test with SK-MEL-28 melanoma it was greater than 100 µM. Besides, the TGI with SK-MEL-2 melanoma, with MDA-MB-231 breast, in the test on UO-31 renal, in the test with NCI-H460 lung, with IGROV1 ovarian and in the test with SK-OV-3 ovarian was greater than 100 µM each time. Also, the TGI with SF-295 CNS, in the test with DU-145 prostate, with SW-620 colon, in the test on UACC-257 melanoma and with NCI/ADR-RES ovarian was greater than 100 µM throughout.
Regarding `N=c1oc2ccc([N+](=O)[O-])cc2cc1C(=O)Nc1ccccn1`, the TGI in the test with KM12 colon is greater than 100 µM; in the test with OVCAR-8 ovarian, greater than 100 µM; in the test on HT29 colon it was greater than 100 µM; with LOX IMVI melanoma, greater than 100 µM; with MALME-3M melanoma, 77.6 µM; in the test with RPMI-8226 leukemia it was greater than 100 µM. Also, the TGI in the test on SK-MEL-28 melanoma was greater than 100 µM; in the test with COLO 205 colon it was greater than 100 µM; in the test with SK-MEL-2 melanoma, 43.4 µM; in the test on MDA-MB-231 breast, 59.9 µM; in the test with NCI-H460 lung it was greater than 100 µM; with IGROV1 ovarian it was greater than 100 µM. The TGI with SK-OV-3 ovarian, in the test on DU-145 prostate, with SW-620 colon, in the test with UACC-62 melanoma, with UACC-257 melanoma and with NCI/ADR-RES ovarian was greater than 100 µM each time.
Turning to `N#Cc1c(N)nc2c(N=Nc3ccccc3)c(N)nn2c1Nc1ccccc1`, the TGI amounted to 18.1 µM with KM12 colon; 14.2 µM in the test with OVCAR-8 ovarian; 31.4 µM in the test with HT29 colon; 10.5 µM in the test with LOX IMVI melanoma; 49.7 µM in the test with MALME-3M melanoma; 16.2 µM in the test with RPMI-8226 leukemia. Also, the TGI amounted to 24.2 µM in the test on SK-MEL-28 melanoma; 30.2 µM in the test on COLO 205 colon; 48.2 µM in the test with SK-MEL-2 melanoma; 47.6 µM in the test with MDA-MB-231 breast; 44.3 µM in the test on NCI-H460 lung; 29.3 µM in the test with IGROV1 ovarian. The TGI in the test with SF-295 CNS is 59.9 µM; in the test on DU-145 prostate, 39.8 µM; in the test on SW-620 colon, 50.3 µM; in the test on UACC-257 melanoma it was 38.9 µM; in the test on NCI/ADR-RES ovarian, 53.9 µM.
As for `CC(=O)N1N=C(c2ccccc2Nc2ccccc2C2=NN(C(C)=O)C(c3ccccc3)O2)OC1c1ccccc1` (centres undefined), the TGI in the test with OVCAR-8 ovarian, in the test on HT29 colon, in the test on LOX IMVI melanoma, with MALME-3M melanoma, in the test on RPMI-8226 leukemia and in the test on SK-MEL-28 melanoma was greater than 100 µM throughout. The TGI in the test with COLO 205 colon, in the test with SK-MEL-2 melanoma, in the test on MDA-MB-231 breast, in the test with UO-31 renal, in the test with NCI-H460 lung and in the test on IGROV1 ovarian was greater than 100 µM each time. Besides, the TGI in the test on SK-OV-3 ovarian, in the test with SF-295 CNS, in the test with DU-145 prostate, in the test with SW-620 colon, with UACC-62 melanoma and in the test with NCI/ADR-RES ovarian was greater than 100 µM each time.
For the compound `CCSC1=C(C#N)C2(CCCCC2)C2=C(CC(C)(C)CC2=O)N1`, the TGI in the test on KM12 colon was greater than 100 µM; with OVCAR-8 ovarian, greater than 100 µM; with HT29 colon it was greater than 100 µM; with LOX IMVI melanoma it was greater than 100 µM; in the test with MALME-3M melanoma, 78.2 µM; in the test with RPMI-8226 leukemia, greater than 100 µM. In addition, the TGI in the test with SK-MEL-28 melanoma was greater than 100 µM; in the test on COLO 205 colon, greater than 100 µM; in the test with SK-MEL-2 melanoma, greater than 100 µM; in the test with MDA-MB-231 breast, greater than 100 µM; with UO-31 renal, 39.8 µM; in the test with NCI-H460 lung it was 21.2 µM. Moreover, the TGI is greater than 100 µM in the test with IGROV1 ovarian; 60.8 µM with DU-145 prostate; greater than 100 µM in the test on SW-620 colon; greater than 100 µM in the test with UACC-62 melanoma; greater than 100 µM with UACC-257 melanoma; greater than 100 µM in the test on NCI/ADR-RES ovarian.
As for `CC(C)CC(NC=O)C(=O)NC(Cc1ccccc1)NC(=O)CNC(=O)C(C)NC(=O)OC(C)(C)C` (centres undefined), the TGI in the test on KM12 colon, in the test on OVCAR-8 ovarian, with HT29 colon, with LOX IMVI melanoma, with MALME-3M melanoma and in the test with RPMI-8226 leukemia was greater than 100 µM each time. Further, the TGI with SK-MEL-28 melanoma, in the test with COLO 205 colon, in the test on MDA-MB-231 breast, in the test on UO-31 renal, in the test on NCI-H460 lung and with IGROV1 ovarian was greater than 100 µM in each case. Moreover, the TGI in the test on SK-OV-3 ovarian, in the test with SF-295 CNS, with DU-145 prostate, in the test on SW-620 colon, in the test on UACC-62 melanoma and in the test on NCI/ADR-RES ovarian was greater than 100 µM each time.

Values taken from PubChem BioAssay (NCI).
